{"source": "patent US10898539B2", "about": "“Process for the synchronization of ovulation for timed breeding without heat detection” (priority 2003, dated 2021)", "type_in_all_cases": "in vivo, swine", "key": {"postpartum sows [1]": {"system": "postpartum sows", "test": "Single timed injection 96 hours post-weaning and single timed insemination without estrus detection in postpartum sows (Example 3)", "conditions": "50 mcg at 96 hours post-weaning", "protocol": "(§1) Approximately 170 postpartum sows were randomly divided into two equal groups comprised of controls and treated. Following weaning, the controls were detected for estrus and bred following the normal standard operating procedures for the farms on which they resided. The treated sows received a 50 mcg dose of deslorelin in SAIB at 96 hours post-weaning and were bred with a single insemination 28+/−2 hours later with no regard to estrus detection. The sows were examined for pregnancy by ultrasound at 21 days and slaughtered around 28 days post breeding. The entire reproductive tract was removed and corpora lutea and embryos were counted."}, "mature postpartum sows": {"system": "mature postpartum sows", "test": "Intravulvar injection at estrus detection in mature postpartum sows, AI breeding (Example 2)", "protocol": "Sows were assigned randomly in blocks of two to either control or to be injected intravulvar with 50 mcg of deslorelin in SAIB at the time of estrus detection for sows first detected in estrus in the a.m. and 12 hours later for those first detected in estrus in the p.m. Treated animals were bred AI upon detected estrus and again 24 hours later if still in estrus. Controls received a saline injection on first detected estrus behavior estrus detection and were bred according to the farm's normal procedures."}, "postpartum sows [2]": {"system": "postpartum sows", "test": "Pregnancy rate after deslorelin treatment in sows, summary of Tables 2-5", "protocol": "as §1, with “counted. Postpartum sows were randomly distributed into three different groups comprised of Controls, Treatment 1, and Treatment 2, with the exception of Site 3, which was divided into two groups, Control and Treatment 2. Control sows were detected for estrus following weaning, and bred following the normal standard operating procedures for the farms on which they resided. Treatment 1 sows were detected for estrus following weaning, and received a 50 mcg dose of deslorelin in the morning when standing and were bred by AI 4 hours later and again at 24+/−2 hours later. Treatment 2 sows received a 50 mcg dose of deslorelin in SAIB at 96 or 120 hours post-weaning and were bred with a single insemination 28+/−2 hours later with no regard to estrus detection. […]” for “counted.”"}, "postpartum sows [3]": {"system": "postpartum sows", "test": "Litter size after deslorelin treatment in postpartum sows at three farm sites (Example 4)", "description": "Postpartum sows were randomly distributed into three different groups comprised of Controls, Treatment 1, and Treatment 2, with the exception of Site 3, which was divided into two groups, Control and Treatment 2. Control sows were detected for estrus following weaning, and bred following the normal standard operating procedures for the farms on which they resided. Treatment 1 sows were detected for estrus following weaning, and received a 50 mcg dose of deslorelin in the morning when standing and were bred by AI 4 hours later and again at 24+/−2 hours later. Treatment 2 sows received a 50 mcg dose of deslorelin in SAIB at 96 or 120 hours post-weaning and were bred with a single insemination 28+/−2 hours later with no regard to estrus detection."}, "[4]": {"conditions": "slaughtered around 28 days post breeding"}, "[5]": {"conditions": "50 μg intravulvar at first estrus detection, AI, AI again if in estrus next day"}, "[6]": {"conditions": "Site 1, Treatment 1: 50 mcg when standing in estrus, AI 4 hours later and again at 24+/-2 hours"}, "[7]": {"conditions": "Site 1, Treatment 2: 50 mcg in SAIB at 96 or 120 hours post-weaning, single insemination 28+/-2 hours later, no estrus detection"}, "[8]": {"conditions": "Site 2, Treatment 1: 50 mcg when standing in estrus, AI 4 hours later and again at 24+/-2 hours"}, "[9]": {"conditions": "Site 2, Treatment 2: 50 mcg in SAIB at 96 or 120 hours post-weaning, single insemination 28+/-2 hours later, no estrus detection"}, "[10]": {"conditions": "Site 3, Treatment 2: 50 mcg in SAIB at 96 or 120 hours post-weaning, single insemination 28+/-2 hours later, no estrus detection"}}}
{"smiles": "CCNC(=O)[C@@H]1CCCN1C(=O)[C@H](CCCN=C(N)N)NC(=O)[C@H](CC(C)C)NC(=O)[C@@H](Cc1c[nH]c2ccccc12)NC(=O)[C@H](Cc1ccc(O)cc1)NC(=O)[C@H](CO)NC(=O)[C@H](Cc1c[nH]c2ccccc12)NC(=O)[C@H](Cc1cnc[nH]1)NC(=O)[C@@H]1CCC(=O)N1", "note": "[Deslorelin, deslorelin]", "values": [{"measurement": "Pregnancy Rate", "setting": "postpartum sows [1]; single insemination 28+/-2 hours later, no estrus detection", "result": 71, "unit": "%"}, {"measurement": "Sows Pregnant", "setting": "postpartum sows [1]; single insemination 28+/-2 hours later, 84 sows in group", "result": 60}, {"measurement": "Embryo Survival", "setting": "postpartum sows [1]; [4]", "result": 64, "unit": "%"}, {"measurement": "Live Embryos", "setting": "postpartum sows [1]; [4]", "result": 13.4}, {"measurement": "Length of Estrus", "setting": "mature postpartum sows; [5]", "result": "40.81 (n = 69) Hrs."}, {"measurement": "Pregnancy Rate", "setting": "mature postpartum sows; [5]", "result": "91% (n = 75)"}, {"measurement": "pregnancy rates, Control versus Treated groups (in words)", "setting": "mature postpartum sows; 50 mcg intravulvar at estrus detection", "result": "no significant difference"}, {"measurement": "pregnancy rates (in words)", "setting": "postpartum sows [2]; Table 6", "result": "normal pregnancy rates"}, {"measurement": "Number Pregnant", "setting": "postpartum sows [2]; Treatment 2 (timed injection, single timed insemination), 250 sows in group, data of Tables 2-5 summarized", "result": 177}, {"measurement": "% Pregnant", "setting": "postpartum sows [2]; Treatment 2 (timed injection, single timed insemination), data of Tables 2-5 summarized", "result": 70.80, "unit": "%"}, {"measurement": "Avg. Total Live Pigs", "setting": "postpartum sows [3]; [6]", "result": 11.03}, {"measurement": "Avg. Total Pigs Born", "setting": "postpartum sows [3]; [6]", "result": 12.10}, {"measurement": "Avg. Total Live Pigs", "setting": "postpartum sows [3]; [7]", "result": 11.24}, {"measurement": "Avg. Total Pigs Born", "setting": "postpartum sows [3]; [7]", "result": 12.37}, {"measurement": "Avg. Total Live Pigs", "setting": "postpartum sows [3]; [8]", "result": 10.25}, {"measurement": "Avg. Total Pigs Born", "setting": "postpartum sows [3]; [8]", "result": 11.21}, {"measurement": "Avg. Total Live Pigs", "setting": "postpartum sows [3]; [9]", "result": 10.02}, {"measurement": "Avg. Total Pigs Born", "setting": "postpartum sows [3]; [9]", "result": 10.88}, {"measurement": "Avg. Total Live Pigs", "setting": "postpartum sows [3]; [10]", "result": 10.27}, {"measurement": "Avg. Total Pigs Born", "setting": "postpartum sows [3]; [10]", "result": 11.09}, {"measurement": "litter sizes (in words)", "setting": "postpartum sows [3]; Tables 3-5, regardless of estrus detection", "result": "normal litter sizes"}]}
